pIC50: −log10 of the molar value.
Key:
[1] = target: T1, Glutamate NMDA receptor; GRIN1/GRIN2B (Homo sapiens, UniProt Q05586+Q13224); assay: Ratio of compound IC50 to ifenprodil IC50 for wild type NR1/NR2B receptor by radioligand binding assay; assay type: protein-complex assay
[2] = target: T1, Glutamate NMDA receptor; GRIN1/GRIN2B; assay: Antagonist activity at wild type NR1/NR2B receptor expressed in Xenopus oocytes assessed as ratio of residual current induced by agonist in presence of compound to residual current induced by agonist alone at 10 uM by two-electrode voltage-clamp method; assay type: functional, cell-based; conditions: Oocyte
[3] = Antagonist activity at NR1/NR2B NTD truncated mutant receptor expressed in Xenopus oocytes assessed as ratio of residual current induced by agonist in presence of compound to residual current induced by agonist alone at 10 uM by two-electrode voltage-clamp method; assay type: functional, Oocyte
[4] = target: T2, Glutamate NMDA receptor; GRIN1/GRIN2A (Homo sapiens) (UniProt Q05586+Q12879); assay: Antagonist activity at wild type NR1/NR2A receptor expressed in Xenopus oocytes assessed as ratio of residual current induced by agonist in presence of compound to residual current induced by agonist alone at 10 uM by two-electrode voltage-clamp method; assay type: functional, cell-based; conditions: Oocyte
[5] = target: T1, Glutamate NMDA receptor; GRIN1/GRIN2B; assay: Antagonist activity at wild type NR1/NR2B receptor expressed in Xenopus oocytes assessed as inhibition of agonist-induced current amplitude at 10 uM by two-electrode voltage-clamp method; assay type: functional, cell-based; conditions: Oocyte
[6] = target: T1, Glutamate NMDA receptor; GRIN1/GRIN2B; assay: Antagonist activity at wild type NR1/NR2B receptor expressed in Xenopus oocytes assessed as inhibition of agonist-induced current amplitude by two-electrode voltage-clamp method; assay type: functional, cell-based, Oocyte
[7] = Antagonist activity at NR1/NR2B NTD truncated mutant receptor expressed in Xenopus oocytes assessed as inhibition of agonist-induced current amplitude at 10 uM by two-electrode voltage-clamp method; assay type: functional; conditions: Xenopus laevis, Oocyte
[8] = target: T2, Glutamate NMDA receptor; GRIN1/GRIN2A (Homo sapiens); assay: Antagonist activity at wild type NR1/NR2A receptor expressed in Xenopus oocytes assessed as inhibition of agonist-induced current amplitude at 10 uM by two-electrode voltage-clamp method; assay type: functional, cell-based; conditions: Oocyte
[9] = target: T1, Glutamate NMDA receptor; GRIN1/GRIN2B; assay: Ratio of compound IC50 to ifenprodil IC50 for wild type NR1/NR2B receptor expressed in Xenopus oocytes; assay type: cell-based; conditions: Oocyte

Row | SMILES | Ratio IC50 [1] | Ratio [2] | Ratio [3] | Ratio [4] | also measured
1 | O=C1CNC(=O)N1CCCCCN1CCC(Cc2ccccc2)CC1 | 440 | – | – | – | –
2 | O=C(CN1CCc2[nH]c3ccccc3c2C1)c1c[nH]c2ccccc12 | – | 0.9 | 0.94 | 0.96 | inhibition [5]: < 20%
3 | O=C1N=C(N2CCN(Cc3ccccc3)CC2)S/C1=C\c1ccc(O)cc1O | – | 0.18 | 0.92 | 0.92 | pIC50 [6]: 5.78; inhibition at 10 µM [7]: 6%; inhibition [8]: 6%
4 | Cc1nnc(SCCCN2CCC(Cc3ccccc3)CC2)s1 | 58 | – | – | – | –
5 | COc1cc(/C=C2\SC(N3CCN(c4ccc(C)cc4)CC3)=NC2=O)ccc1O | – | 0.95 | 0.97 | – | –
6 | O=C1N=C(N2CCN(c3ccc(F)cc3)CC2)S/C1=C\c1ccc(O)cc1 | – | 0.75 | 0.96 | – | pIC50 [6]: 4.89
7 | C(#Cc1ccc2[nH]ccc2c1)CN1CCC(=Cc2ccccc2)CC1 | 140 | – | – | – | –
8 | Oc1ccc2c(c1)OC[C@@H](N1CCC(O)(c3ccccc3)CC1)[C@H]2O | 11 | – | – | – | –
9 | O=c1[nH]c2ncc(C#CCN3CCC(Cc4ccccc4)CC3)cc2o1 | 0.45 | – | – | – | –
10 | COc1cc(/C=C2\SC(Nc3cccc(Cl)c3Cl)=NC2=O)ccc1O | – | 0.925 | 0.96 | 0.97 | inhibition [5]: < 20%
11 | CC(=O)Nc1ccc2c(c1)CN(Cc1ccc(Cl)cc1)CO2 | – | 0.83 | 0.88 | 0.77 | inhibition [5]: < 20%
12 | C[C@@H](CN1CCC(Cc2ccccc2)CC1)[C@@H](O)c1ccc(O)cc1 | 0.3 | – | – | – | –
13 | COc1cc(/C=C2\SC(N3CCN(c4cccc(C)c4)CC3)=NC2=O)ccc1O | – | 0.95 | 0.96 | – | –
14 | Oc1ccc2[nH]c3c(c2c1)CN(CCCCc1ccccc1)CC3 | 0.45 | – | – | – | –
15 | Cn1c(O)nc2cc(C#CCN3CCC(Cc4ccccc4)CC3)ccc21 | 560 | – | – | – | –
16 | CC(=O)Nc1ccc(N2C(=O)C[C@@H](N3CCc4[nH]c5ccccc5c4C3)C2=O)cc1 | – | 0.97 | 0.98 | 0.98 | inhibition [5]: < 20%
17 | O=C1N=C(N2CCN(c3cccc(Cl)c3)CC2)S/C1=C\c1ccc(O)cc1 | – | 0.94 | 0.92 | 0.9 | –
18 | CCN1CCN(C2=NC(=O)/C(=C/c3ccc(O)cc3)S2)CC1 | – | 0.93 | 0.96 | – | –
19 | COc1cc(/C=C2\SC(N3CCN(c4ccc(C)c(Cl)c4)CC3)=NC2=O)ccc1O | – | 0.9 | 0.97 | – | –

Row | SMILES | Ratio IC50 [1] | Ratio [2] | Ratio [3] | Ratio [4] | also measured
20 | Oc1nc2cc(C#CCN3CCC(Cc4ccccc4)CC3)ccc2[nH]1 | 0.048 | – | – | – | –
21 | O=C1CNC(=O)N1CCCN1CCC(Cc2ccccc2)CC1 | 250 | – | – | – | –
22 | N=C1/C(=C/c2ccc(O)cc2)C(=O)N=C2SC(Cc3ccc(Cl)cc3)=NN12 | – | 0.9 | 0.97 | 0.99 | inhibition [5]: < 20%
23 | O=C1N=C(N2CCN(Cc3ccccc3)CC2)S/C1=C\c1ccc(O)cc1 | – | 0.22 | 0.96 | 0.94 | pIC50 [6]: 5.57; Ratio IC50 [9]: 10; inhibition [5]: 0.92%; inhibition at 10 µM [7]: 4%; inhibition [8]: 4%
24 | Oc1nc2cc(C#CCN3CCC(=Cc4ccc(F)cc4)CC3)ccc2[nH]1 | 2.5 | – | – | – | –
25 | O=C1N=C(N2CCN(Cc3ccccc3)CC2)S/C1=C\c1ccccc1 | – | 0.95 | 0.97 | – | –
26 | Nc1ccc(N2CCN(Cc3ccccc3Cl)CC2)cc1 | – | 0.98 | 0.98 | 0.97 | inhibition [5]: < 20%
27 | COc1cc(/C=C2/SC(N3CCN(Cc4ccccc4)CC3)=NC2=O)ccc1O | – | 0.61 | 0.97 | – | pIC50 [6]: 4.96
28 | CCN(CC)CCCOC(=O)c1ccc(O)cc1O | – | 0.94 | 0.97 | 0.97 | inhibition [5]: < 20%
29 | O=C1N=C(N2CCN(Cc3ccccc3)CC2)S/C1=C/c1ccc(O)cc1 | – | 0.15 | 0.96 | 0.9 | pIC50 [6]: 5.74; inhibition at 10 µM [7]: 6%; inhibition [8]: 6%
30 | Nc1ccc(C#CCCN2CCC(Cc3ccccc3)CC2)cc1 | 4 | – | – | – | –
31 | O=c1[nH]c2cc([S+]([O-])CCN3CCC(Cc4ccc(F)cc4)CC3)ccc2o1 (stereo unspecified) | 0.03 | – | – | – | –
32 | Oc1nc2cc(C#CCN3CCC(Cc4ccc(F)cc4)CC3)c[nH]c-2n1 | 0.03 | – | – | – | –
33 | COc1cc(CN2CCN(Cc3cccc(C)c3)CC2)cc(OC)c1O | – | 0.96 | 0.97 | 0.98 | inhibition [5]: < 20%
34 | O=C1N=C(N2CCN(c3ccccc3)CC2)S/C1=C\c1ccc(O)cc1 | – | 0.75 | 0.96 | 0.88 | inhibition at 10 µM [7]: 25%; inhibition [8]: 25%
35 | C(#Cc1ccccc1)CCN1CCC(Cc2ccccc2)CC1 | 43 | – | – | – | –
36 | O=C1N=C(N2CCN(c3ccccc3)CC2)S/C1=C/c1ccc(O)cc1 | – | 0.74 | 0.96 | – | –
37 | Oc1ccc(CCCCN2CCc3c([nH]c4ccccc34)C2)cc1 | 5 | – | – | – | –
38 | O=C1N=C(N2CCN(Cc3ccccc3)CC2)S/C1=C\c1ccccc1O | – | 0.96 | 0.96 | – | –

Reference: ChEMBL document CHEMBL1221329, “Identification of a novel NR2B-selective NMDA receptor antagonist using a virtual screening approach” (Bioorg Med Chem Lett, 2010)
